Experimental findings from patent US6900216B2, “Dihydroimidazo[2,1-b]thiazole and dihydro-5h-thiazolo[3,2-A]pyrimidines as antidepressant agents” (Knoll GmbH, priority 2000, dated 2005) are described below.

Molecules are shown by their SMILES. Where two headings read alike, the source gives them in different places.

Usually Ki stands for the equilibrium dissociation constant of an inhibitor or competing ligand from its target. Low values mean a stronger hold on the target, high ones a looser hold on the target.

This test addresses T1, 5-HT1A receptors (Rattus norvegicus, UniProt P19327).
T1 construct: Hippocampal tissue from the brains of male Sprague-Dawley rats; from tissue; host or cells: rat hippocampal membranes
T1 sequence (P19327 1-422): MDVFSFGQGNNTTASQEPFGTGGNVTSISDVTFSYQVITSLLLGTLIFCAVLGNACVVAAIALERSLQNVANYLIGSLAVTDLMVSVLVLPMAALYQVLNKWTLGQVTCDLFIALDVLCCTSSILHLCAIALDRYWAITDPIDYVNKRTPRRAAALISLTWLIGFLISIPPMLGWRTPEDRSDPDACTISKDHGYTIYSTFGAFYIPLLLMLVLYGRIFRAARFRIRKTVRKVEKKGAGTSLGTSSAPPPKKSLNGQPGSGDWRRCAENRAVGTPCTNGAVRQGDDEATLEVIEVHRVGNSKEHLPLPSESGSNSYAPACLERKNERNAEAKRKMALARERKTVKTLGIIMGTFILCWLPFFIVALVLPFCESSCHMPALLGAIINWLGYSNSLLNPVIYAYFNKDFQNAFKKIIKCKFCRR
The experiment in a line: 5-HT1A binding: inhibition of [3H]8-OH-DPAT binding to rat hippocampal membranes. Particulars: for Ki: [3H]8-OH-DPAT 1 nM, rat hippocampal membranes, fit to data from three experiments; for inhibition at 1 µM: read-out: 5-HT1A % displacement at 10^−6 M. As for the experimental part: Hippocampal tissue from the brains of male Sprague-Dawley rats (Charles River; weight range 150-250 g) was homogenised in ice-cold 50 mM Tris-HCl buffer (pH 7.7 when measured at 25° C., 1:40 w/v) and centrifuged at 40,000 g at 4° C. for 10 minutes. The pellet was rehomogenised in the same buffer, incubated at 37° C. for 10 minutes and centrifuged at 40,000 g at 4° C. for 10 minutes. The final pellet was resuspended in 50 mM Tris-HCl buffer (pH 7.7) containing 4 mM CaCl2, 0.1% L-ascorbic acid and 10 μM pargyline hydrochloride (equivalent to 6.25 mg wet weight of tissue/ml) and used immediately in the binding assay.
Membranes (400 μl; equivalent to 2.5 mg wet weight of tissue/tube) were incubated with 50 μl of [^3H]8-hydroxy-2-(dipropylamino)tetralin ([^3H]8-OH-DPAT) at a single concentration of 1 nM and 50 μl of distilled water (total binding) or 50 μl of test compound (at a single concentration of 10^−6 M or at 10 concentrations ranging from 10^−11-10^−3 M) or 50 μl of 5-HT (10 μM, non-specific binding) at 25° C. for 30 minutes. The incubation was terminated by rapid filtration under vacuum through Skatron 11734 filters using a Skatron Cell Harvester. Filters were washed with ice-cold 50 mM Tris-HCl buffer, pH 7.7 (at 25° C., wash setting 9,9,0). The scored filter paper discs were punched out into vials, scintillation fluid added and radioactivity determined by liquid scintillation counting.
For each of these tests measuring the ability of compounds of Formula I to displace standard ligands from 5-HT1A receptors and 5-hydroxytryptamine (5-HT) and noradrenaline (NA) reuptake sites and muscarinic receptors in vitro, the percentage displacement of specific binding of tritiated ligand by 10^−6 M test compound was calculated in the following way.
Firstly, specific binding of tritiated ligand in the absence (A) and presence (B) of test compound was determined:
In the absence of compound: A(dpm)=Total binding (dpm)−Non-specific binding (dpm) In the presence of compound (10^−6 M): B(dpm)=Binding at 10^−6M (dpm)−Non-specific binding (dpm)
The specific binding of tritiated ligand in the presence (B) of compound was then converted to a percentage of specific binding of tritiated ligand in the absence (A) of compound: % Specific binding at 10^−6 M=B(dpm)/A(dpm)×100
The percentage displacement of specific binding of tritiated ligand by the test compound (10^−6 M) was then obtained by subtraction of the percentage specific binding in the presence of compound from the percentage specific binding in the absence of compound, which is taken as the maximum binding and so equals 100%:
% Displacement at 10^−6 M=100−% Specific binding at 10^−6 M.
In some cases, displacement curves were then produced for compounds which displaced ≧50% of specific binding of the tritiated ligand at 10^−6 M using a range of concentrations of the compound. The Ki was then calculated by simultaneous fitting using equations derived from the Feldman equations by robust non-linear regression to data from three experiments simultaneously (De Lean et al., 1978; Munson and Rodbard, 1980; Feldman, 1992). Munson P J and Rodbard D. Ligand: a versatile computerised approach for characterisation of ligand binding systems. Anal Biochem 1980; 107: 220. Feldman HA. Mathematical theory of complex ligand binding systems at equilibrium: some methods for parameter fitting. Anal Biochem 1992: 48, 317. De Lean A, Munson P J and Rodbard D. Simultaneous analysis of families of sigmoidal curves: application to bioassay, radioligand assay, and physiological dose-response curves. Am J Physiol 1978: 235 (2), E97-E102.
The results obtained in the above tests for 5-HT1A binding and 5-HT and NA uptake and muscarinic binding for the final products of Examples 1-39 hereinafter are given in Table 1 below. Kis are in nM. % Figures are for % displacement at 10^−6 M for a single determination.

Where [1] appears, read: 10^−6 M test compound, single determination, [3H]8-OH-DPAT.

`C1=C(c2cccc3sccc23)N2CCN=C2S1.Cl` [Example 2, 3-(benzo[b]thiophen-4-yl)-5,6-dihydroimidazo[2,1-b]thiazole hydrochloride] displayed a Ki of 86 nM.

As for `Br.CC1=C(c2cccc3sccc23)N2CCN=C2S1` [Example 8, 3-(benzo[b]thiophen-4-yl)-2-methyl-5,6-dihydroimidazo[2,1-b]thiazole hydrobromide], the affinity, expressed as Ki, was 14.3 nM.

`CSC1=C(c2cc3ccccc3s2)N2CCN=C2S1` [Example 19, 3-(benzo[b]thiophen-2-yl)-2-(methylthio)-5,6-dihydroimidazo[2,1-b]thiazole]: the Ki was determined as 134 nM.

The compound `CC(C)C1=C(c2cccc3sccc23)N2CCN=C2S1.O=C(O)/C=C/C(=O)O` [Example 35, 3-(benzo[b]thiophen-4-yl)-2-(1-methylethyl)-5,6-dihydroimidazo[2,1-b]thiazole fumarate] returned a Ki of 151 nM.

Regarding `Br.Oc1cccc2sc(C3=CSC4=NCCN34)cc12` [Example 12, 2-(5,6-dihydroimidazo[2,1-b]thiazol-3-yl)benzo[b]thiophen-4-ol hydrobromide], the Ki is 52 nM.

`OCC1=C(c2cccc3sccc23)N2CCN=C2S1` [Example 3, [3-(benzo[b]thiophen-4-yl)-5,6-dihydroimidazo[2,1-b]thiazol-2-yl]methanol] yielded a Ki of 20.4 nM.

Consider `Br.CC1=C(c2cc3c(F)cccc3s2)N2CCN=C2S1` [Example 7, 3-(4-fluorobenzo[b]thiophen-2-yl)-2-methyl-5,6-dihydroimidazo[2,1-b]thiazole hydrobromide], for which the Ki was 11.7 nM.

The compound `Br.CC1=C(c2ccc(F)c3sccc23)N2CCN=C2S1` [Example 38, 3-(7-fluorobenzo[b]thiophen-4-yl)-2-methyl-5,6-dihydroimidazo[2,1-b]thiazole hydrobromide] returned a Ki of 29 nM.

For the compound `Br.CC1(c2cc3cc(F)ccc3s2)CSC2=NCCN21` (stereo not shown) [Example 27, 3-(5-fluorobenzo[b]thiophen-2-yl)-3-methyl-5,6-dihydroimidazo[2,1-b]thiazole hydrobromide], the inhibition at 1 µM amounted to 88%.

On to `Br.CCC1=C(c2cc3c(Cl)cccc3s2)N2CCN=C2S1` [Example 18, 3-(4-chlorobenzo[b]thiophen-2-yl)-2-ethyl-5,6-dihydroimidazo[2,1-b]thiazole hydrobromide], for which the inhibition at 1 µM came to 96%.

As to `Br.CC1=C(c2cc3c(C)cccc3s2)N2CCN=C2S1` [Example 16, 2-methyl-3-(4-methylbenzo[b]thiophen-2-yl)-5,6-dihydroimidazo[2,1-b]thiazole hydrobromide], the inhibition at 1 µM came to 97%.

For the compound `OCC1=C(c2cc3ccccc3s2)N2CCN=C2S1` [Example 15, [3-(benzo[b]thiophen-2-yl)-5,6-dihydroimidazo[2,1-b]thiazol-2-yl]methanol], the inhibition at 1 µM under setting [1] was found to be 97%.

The compound `CC1=C(c2cccc3ccsc23)N2CCN=C2S1.Cl` [Example 23, 3-(benzo[b]thiophen-7-yl)-2-methyl-5,6-dihydroimidazo[2,1-b]thiazole hydrochloride] gave a Ki of 20 nM.

Turning to `CSC1=C(c2ccc3sccc3c2)N2CCN=C2S1` [Example 30, 3-(benzo[b]thiophen-5-yl)-2-(methylthio)-5,6-dihydroimidazo[2,1-b]thiazole], the inhibition at 1 µM under setting [1] came to 66%.

Take `CC1=C(c2cccc3sccc23)N2CCN=C2S1.Cl` [Example 9, 3-(benzo[b]thiophen-4-yl)-2-methyl-5,6-dihydroimidazo[2,1-b]thiazole hydrochloride]: the affinity, expressed as Ki, was 15 nM.

Turning to `Br.Clc1cccc2sc(C3=CSC4=NCCN34)cc12` [Example 1, 3-(4-chlorobenzo[b]thiophen-2-yl)-5,6-dihydroimidazo[2,1-b]thiazole hydrobromide], the inhibition at 1 µM turned out to be 60%.

Compound `Br.CC1=C(c2cc3c(Cl)cccc3s2)N2CCN=C2S1` [Example 10, 3-(4-chlorobenzo[b]thiophen-2-yl)-2-methyl-5,6-dihydroimidazo[2,1-b]thiazole hydrobromide] gave a Ki of 5.9 nM.

Take `Br.CCC1=C(c2cc3cc(Cl)ccc3s2)N2CCN=C2S1` [Example 11, 3-(5-chlorobenzo[b]thiophen-2-yl)-2-ethyl-5,6-dihydroimidazo[2,1-b]thiazole hydrobromide]: the inhibition at 1 µM came out at 80%.

`CCC1=C(c2ccc3sccc3c2)N2CCN=C2S1.O=C(O)/C=C/C(=O)O` [Example 31, 3-(benzo[b]thiophen-5-yl)-2-ethyl-5,6-dihydroimidazo[2,1-b]thiazole fumarate] registered a Ki of 102 nM.

Compound `Br.CCC1=C(c2cccc3sccc23)N2CCN=C2S1` [Example 13, 3-(benzo[b]thiophen-4-yl)-2-ethyl-5,6-dihydroimidazo[2,1-b]thiazole hydrobromide] showed a Ki of 15.5 nM.

On to `Br.CC1=C(c2cc3c(Cl)cccc3s2)N2CCCN=C2S1` [Example 17, 3-(4-chlorobenzo[b]thiophen-2-yl)-2-methyl-6,7-dihydro-5H-thiazolo[3,2-a]pyrimidine hydrobromide], for which the inhibition at 1 µM came out at 82%.

With `Br.c1cc(C2=C(C3CC3)SC3=NCCN32)c2ccsc2c1` [Example 34, 3-(benzo[b]thiophen-4-yl)-2-cyclopropyl-5,6-dihydroimidazo[2,1-b]thiazole hydrobromide], affinity was put at a Ki of 45 nM.

As for `Br.CC1=C(c2ccc3sccc3c2)N2CCN=C2S1` [Example 21, 3-(benzo[b]thiophen-5-yl)-2-methyl-5,6-dihydroimidazo[2,1-b]thiazole hydrobromide], the Ki stood at 31 nM.

Turning to `CSC1=C(c2cccc3sccc23)N2CCN=C2S1.O=C(O)/C=C/C(=O)O` [Example 32, 3-(benzo[b]thiophen-4-yl)-2-(methylthio)-5,6-dihydroimidazo[2,1-b]thiazole fumarate], affinity was put at a Ki of 93 nM.

On to `Br.CC1=C(c2cc3cccc(Cl)c3s2)N2CCN=C2S1` [Example 20, 3-(7-chlorobenzo[b]thiophen-2-yl)-2-methyl-5,6-dihydroimidazo[2,1-b]thiazole hydrobromide], for which the inhibition at 1 µM stood at 98%.

For `C=CC1=C(c2cccc3sccc23)N2CCN=C2S1.Cl` [Example 39, 3-(benzo[b]thiophen-4-yl)-2-vinyl-5,6-dihydroimidazo[2,1-b]thiazole hydrochloride], the inhibition at 1 µM came out at 85%.

In the case of `Cc1cccc2sc(C3=CSC4=NCCN34)cc12.Cl` [Example 14, 3-(4-methylbenzo[b]thiophen-2-yl)-5,6-dihydroimidazo[2,1-b]thiazole hydrochloride], the inhibition at 1 µM is 64%.

`Br.CC1=C(c2ccc3ccsc3c2)N2CCN=C2S1` [Example 37, 3-(benzo[b]thiophen-6-yl)-2-methyl-5,6-dihydroimidazo[2,1-b]thiazole hydrobromide] returned a Ki of 2.1 nM.
